Experimental data as given in patent publication US20130259835A1, “BIFIDOBACTERIUM ADOLESCENTIS SPM0212 HAVING ANTIVIRAL ACTIVITY FOR HEPATITIS B VIRUS, AND PHARMACEUTICAL COMPOSITION FOR PREVENTING AND TREATING HEPATITIS B COMPRISING THEREOF” (SAHMYOOK UNIVERSITY INDUSTRY-ACADEMIC COOPERATION, priority 2011, published 2013).

Experiments:
[1] = test system: Bifidobacterium adolescentis SPM1005; experiment: Antibiotics sensitivity, agar dilution MIC; format: cell-based; conditions: strain SPM1005; Table 5
Protocol: (§1) Antibiotics sensitivity test was performed for comparative analysis of phenotypes of the lactobacillus strain separated in Example 1 and standard strains purchased from KCTC. In order to find out the minimum inhibitory concentrations (MICs) of 18 kinds of antibiotics (ampicillin, mupirocin, amoxicillin/clavulanic acid, oxacillin, cefonicid, cefazolin, ceftazidime, cefotaxime, ceftriaxone, tigecyclin, streptomycin, vancomycin, teicoplanin, daptomycin, linezolid, clindamycin, quinupristin/dalfopristin and tobramycin), agar dilution method was performed according to the Clinical and Laboratory Standards Institute (CLSI, 2003), and the results were listed in Tables 4 and 5.

[2] = test system: Bifidobacterium adolescentis SPM0212; experiment: Antibiotics sensitivity, agar dilution MIC; format: cell-based; conditions: strain SPM0212; Table 5
Protocol: as §1

[3] = test system: Bifidobacterium adolescentis SPM1608; experiment: Antibiotics sensitivity, agar dilution MIC; format: cell-based; conditions: strain SPM1608; Table 5
Protocol: as §1

[4] = test system: Bifidobacterium longum SPM1206; experiment: Antibiotics sensitivity, agar dilution MIC; format: cell-based; conditions: strain SPM1206; Table 5
Protocol: as §1

[5] = test system: Bifidobacterium pseudocatenulatum SPM1204; experiment: Antibiotics sensitivity, agar dilution MIC; format: cell-based; conditions: strain SPM1204; Table 5
Protocol: as §1

[6] = test system: Bifidobacterium adolescentis SPM1601; experiment: Antibiotics sensitivity, agar dilution MIC; format: cell-based; conditions: strain SPM1601; Table 5
Protocol: as §1

[7] = test system: Bifidobacterium adolescentis KCTC3352; experiment: Antibiotics sensitivity, agar dilution MIC; format: cell-based; conditions: strain KCTC3352; Table 5
Protocol: as §1

[8] = test system: Bifidobacterium adolescentis SPM1606; experiment: Antibiotics sensitivity, agar dilution MIC; format: cell-based; conditions: strain SPM1606; Table 5
Protocol: as §1

[9] = test system: Bifidobacterium pseudocatenulatum SPM1309; experiment: Antibiotics sensitivity, agar dilution MIC; format: cell-based; conditions: strain SPM1309; Table 5
Protocol: as §1

[10] = test system: Bifidobacterium adolescentis SPM0308; experiment: Antibiotics sensitivity, agar dilution MIC; format: cell-based; conditions: strain SPM0308; Table 5
Protocol: as §1

[11] = test system: Bifidobacterium longum KCTC3128; experiment: Antibiotics sensitivity, agar dilution MIC; format: cell-based; conditions: strain KCTC3128; Table 5
Protocol: as §1

[12] = test system: Bifidobacterium pseudocatenulatum KCTC3223; experiment: Antibiotics sensitivity, agar dilution MIC; format: cell-based; conditions: strain KCTC3223; Table 5
Protocol: as §1

[13] = test system: Bifidobacterium adolescentis SPM1604; experiment: Antibiotics sensitivity, agar dilution MIC; format: cell-based; conditions: strain SPM1604; Table 5
Protocol: as §1

[14] = test system: Bifidobacterium adolescentis SPM1307-A; experiment: Antibiotics sensitivity, agar dilution MIC; format: cell-based; conditions: strain SPM1307-A; Table 5
Protocol: as §1

[15] = test system: Bifidobacterium adolescentis SPM1605; experiment: Antibiotics sensitivity, agar dilution MIC; format: cell-based; conditions: strain SPM1605; Table 5
Protocol: as §1

[16] = test system: Bifidobacterium longum SPM1205; experiment: Antibiotics sensitivity, agar dilution MIC; format: cell-based; conditions: strain SPM1205; Table 5
Protocol: as §1

[17] = test system: Bifidobacterium adolescentis SPM0214; experiment: Antibiotics sensitivity, agar dilution MIC; format: cell-based; conditions: strain SPM0214; Table 5
Protocol: as §1

[18] = test system: Bifidobacterium longum SPM1207; experiment: Antibiotics sensitivity, agar dilution MIC; format: cell-based; conditions: strain SPM1207; Table 5
Protocol: as §1

hepatitis B virus = conditions: administered 3 times a week for at least 3 months; average; cited from earlier work

Molecule | Minimum inhibitory concentrations (MICs) [1] [μl/Ml] | Minimum inhibitory concentrations (MICs) [2] | Minimum inhibitory concentrations (MICs) [3] | Minimum inhibitory concentrations (MICs) [4] [μl/Ml] | Minimum inhibitory concentrations (MICs) [5] [μl/Ml] | Minimum inhibitory concentrations (MICs) [6] [μl/Ml] | Minimum inhibitory concentrations (MICs) [7] [μl/Ml] | Minimum inhibitory concentrations (MICs) [8] | Minimum inhibitory concentrations (MICs) [9] [μl/Ml] | Minimum inhibitory concentrations (MICs) [10] | Minimum inhibitory concentrations (MICs) [11] [μl/Ml] | Minimum inhibitory concentrations (MICs) [12] [μl/Ml] | Minimum inhibitory concentrations (MICs) [13] | Minimum inhibitory concentrations (MICs) [14] [μl/Ml] | Minimum inhibitory concentrations (MICs) [15] [μl/Ml] | Minimum inhibitory concentrations (MICs) [16] | Minimum inhibitory concentrations (MICs) [17] [μl/Ml] | Minimum inhibitory concentrations (MICs) [18] | patients with treatment effect of inhibiting the virus replication (hepatitis B virus) [%]
[H]/N=C(/N)N[C@H]1[C@H](O)[C@@H](O)[C@H](O[C@@H]2O[C@@H](C)[C@](O)(C=O)[C@H]2O[C@@H]2O[C@@H](CO)[C@H](O)[C@@H](O)[C@@H]2NC)[C@@H](N/C(N)=N\[H])[C@@H]1O [STR, streptomycin] | 32 | 128 μl/Ml | 32 μl/Ml | 8 | 128 | 64 | 128 | 0.25 μl/Ml | 32 | 32 μl/Ml | 128 | 128 | ≦0.06 μl/Ml | 64 | 32 | 8 μl/Ml | 32 | – | –
CN(C)c1cc(NC(=O)CNC(C)(C)C)c(O)c2c1C[C@H]1C[C@H]3[C@H](N(C)C)C(O)=C(C(N)=O)C(=O)[C@@]3(O)C(O)=C1C2=O [TIG, tigecyclin] | 0.5 | ≦0.06 μl/Ml | ≦0.06 μl/Ml | 0.12 | 0.5 | 0.25 | 0.5 | 0.12 μl/Ml | 0.25 | ≦0.06 μl/Ml | 0.5 | 0.5 | ≦0.06 μl/Ml | 0.25 | 0.5 | ≦0.06 μl/Ml | 0.25 | – | –
NC[C@H]1O[C@H](O[C@H]2[C@H](O)[C@@H](O[C@H]3O[C@H](CO)[C@@H](O)[C@H](N)[C@H]3O)[C@H](N)C[C@@H]2N)[C@H](N)C[C@@H]1O [TOB, tobramycin] | 32 | >128 μl/Ml | 128 μl/Ml | 32 | 128 | 32 | >128 | 16 μl/Ml | >128 | 32 μl/Ml | >128 | >128 | 16 μl/Ml | 64 | 16 | 4 μl/Ml | 32 | – | –
CN[C@H](CC(C)C)C(=O)N[C@H]1C(=O)N[C@@H](CC(N)=O)C(=O)N[C@H]2C(=O)N[C@H]3C(=O)N[C@H](C(=O)N[C@H](C(=O)O)c4cc(O)cc(O)c4-c4cc3ccc4O)[C@H](O)c3ccc(c(Cl)c3)Oc3cc2cc(c3O[C@@H]2O[C@H](CO)[C@@H](O)[C@H](O)[C@H]2O[C@H]2C[C@](C)(N)[C@H](O)[C@H](C)O2)Oc2ccc(cc2Cl)[C@H]1O [VAN, vancomycin] | 2 | 2 μl/Ml | 2 μl/Ml | 2 | 2 | 2 | 2 | ≦0.06 μl/Ml | 2 | 2 μl/Ml | 4 | 4 | ≦0.06 μl/Ml | 2 | 2 | 2 μl/Ml | 2 | 2 μl/Ml | –
interferon-α | – | – | – | – | – | – | – | – | – | – | – | – | – | – | – | – | – | – | 20
teicoplanin [TEC] | 1 | 2 μl/Ml | 2 μl/Ml | 1 | 2 | 2 | 2 | ≦0.06 μl/Ml | 0.25 | 2 μl/Ml | 2 | 2 | ≦0.06 μl/Ml | 0.5 | 1 | 0.5 μl/Ml | 2 | 1 | –
